We go through 7 compounds from ChEMBL document CHEMBL1140270, “Synthesis and biological evaluation of new biphalin analogues with non-hydrazine linkers” (Bioorg Med Chem Lett, 2005).

The nature of test [1]: In vitro inhibition of [3H]DPDPE binding to Opioid receptor delta.
The nature of test [2]: In vitro inhibition of [3H]DAMGO binding to Opioid receptor mu.
Test [3] deals with Mu-type opioid receptor (Cavia porcellus) (UniProt P97266). As to the kind of experiment: Percent inhibition against Opioid receptor mu in guinea pig ileum/longitudinal muscle myenteric plexus. Type of test: functional, tissue-based. To be noted: concentration not given here.
Sequence of Mu-type opioid receptor (Cavia porcellus) (P97266 whole entry): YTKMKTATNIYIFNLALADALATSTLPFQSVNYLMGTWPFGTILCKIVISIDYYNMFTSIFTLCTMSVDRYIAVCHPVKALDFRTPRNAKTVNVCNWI
The target of test [4] is Delta-type opioid receptor (Mus musculus) (UniProt P32300). Put plainly: Percent inhibition against Opioid receptor delta in mouse vas deferens. Type of test: functional, tissue-based. To be noted: concentration not given here.
Sequence of Delta-type opioid receptor (Mus musculus) (P32300 whole entry): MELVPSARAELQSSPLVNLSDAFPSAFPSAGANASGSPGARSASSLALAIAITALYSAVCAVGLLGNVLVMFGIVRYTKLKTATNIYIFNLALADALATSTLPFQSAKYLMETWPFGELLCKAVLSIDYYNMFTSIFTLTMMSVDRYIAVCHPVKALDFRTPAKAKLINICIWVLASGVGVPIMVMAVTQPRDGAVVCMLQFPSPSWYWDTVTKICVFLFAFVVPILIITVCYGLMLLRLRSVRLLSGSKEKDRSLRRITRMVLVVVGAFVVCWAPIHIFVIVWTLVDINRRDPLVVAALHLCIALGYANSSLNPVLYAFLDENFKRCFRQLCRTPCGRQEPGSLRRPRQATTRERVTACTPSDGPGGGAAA
For test [5], the target named is Delta-type opioid receptor (Mus musculus, UniProt P32300). Put plainly: In vitro agonist activity against Opioid receptor delta in mouse vas deferens. Type of test: functional, tissue-based.
Sequence of Delta-type opioid receptor (P32300 whole entry): as above
A further test concerns the target Mu-type opioid receptor (Cavia porcellus, UniProt P97266). As to the kind of experiment: In vitro agonist activity against Opioid receptor mu in guinea pig ileum/longitudinal muscle myenteric plexus. Type of test: functional, tissue-based.

Molecules are shown by their SMILES.

Sequence of Mu-type opioid receptor (P97266 whole entry): as the sequence (P97266 whole entry) above

In general, IC50 refers to the concentration at which inhibition is half-maximal. The inhibition is the relative decrease from the control value, in per cent. A lower inhibition goes with a weak effect. For the compound `N[C@H](Cc1ccc(O)cc1)C(=O)N[C@H](Cc1ccccc1)C(=O)N1CCN(C(=O)[C@@H](Cc2ccccc2)NC(=O)[C@H](N)Cc2ccc(O)cc2)CC1`, the IC50 amounted to 400 nM in test [1] and 2700 nM in test [2]. In addition, the figures for the inhibition in test [3] and in test [4] were 25.5% and 8.1%, respectively.

With `C[C@@H](NC(=O)[C@@H](N)Cc1ccc(O)cc1)C(=O)NCC(=O)N[C@@H](Cc1ccccc1)C(=O)Nc1ccccc1NC(=O)[C@H](Cc1ccccc1)NC(=O)CNC(=O)[C@@H](C)N[C@@H](N)Cc1ccc(O)cc1`, the IC50 in test [1] was 0.19 nM; in test [5], 0.72 nM; in test [2], 1.93 nM; on Mu-type opioid receptor, 40 nM.

On to `C[C@@H](NC(=O)[C@@H](N)Cc1ccc(O)cc1)C(=O)NCC(=O)N[C@@H](Cc1ccccc1)C(=O)NNC(=O)[C@H](Cc1ccccc1)NC(=O)CNC(=O)[C@@H](C)NC(=O)[C@@H](N)Cc1ccc(O)cc1` [BIPHALIN], for which the IC50 in test [1] stood at 2.6 nM; in test [2], 1.4 nM.

Take `N[C@H](Cc1ccc(O)cc1)C(=O)N[C@H](Cc1ccccc1)C(=O)Nc1ccccc1NC(=O)[C@@H](Cc1ccccc1)NC(=O)[C@H](N)Cc1ccc(O)cc1`: the IC50 in test [1] was 640 nM; in test [2] it was 3010 nM. The values for the inhibition in test [3] and in test [4] were 61% and 47%, respectively.

Regarding `C[C@@H](NC(=O)[C@@H](N)Cc1ccc(O)cc1)C(=O)NCC(=O)N[C@@H](Cc1ccccc1)C(=O)Nc1ccc(NC(=O)[C@H](Cc2ccccc2)NC(=O)CNC(=O)[C@@H](C)N[C@@H](N)Cc2ccc(O)cc2)cc1`, the IC50 amounted to 3.17 nM in test [1], 35.6 nM in test [5], 1.27 nM in test [2] and 40 nM at Mu-type opioid receptor.

As for `C[C@@H](NC(=O)[C@@H](N)Cc1ccc(O)cc1)C(=O)NCC(=O)N[C@@H](Cc1ccccc1)C(=O)N1CCN(C(=O)[C@H](Cc2ccccc2)NC(=O)CNC(=O)[C@@H](C)N[C@@H](N)Cc2ccc(O)cc2)CC1`, the IC50 in test [1] worked out at 0.65 nM; in test [5], 9.3 nM; in test [2], 0.48 nM; on Mu-type opioid receptor, 2.5 nM.

Consider `N[C@H](Cc1ccc(O)cc1)C(=O)N[C@H](Cc1ccccc1)C(=O)Nc1ccc(NC(=O)[C@@H](Cc2ccccc2)NC(=O)[C@H](N)Cc2ccc(O)cc2)cc1`, for which the IC50 was 2400 nM in test [1] and 8200 nM in test [2]. The inhibition in test [3] is 43%; in test [4] it was 17%.
